Biological target: human PKR1 receptors (Homo sapiens (Human), UniProt Q8TCW9)
Assay: PKR1 antagonist intracellular calcium (FLIPR) assay, block of PK1-mediated calcium release
Format: cell-based
Conditions: RBL2H3 cells expressing human PKR1; PK1 at EC80; minimum of two independent assays
Experimental: Prokineticin receptor 1 (PKR1) antagonists may be functionally assessed by measurement of change in intracellular calcium levels induced by Gq mediated increase in inositol triphosphate (IP3) levels. The ability of a compound to block the intracellular release of calcium mediated by PK1 in RBL2H3 cells expressing human PKR1 receptors is determined as a measure of the compound's antagonist activity in vitro.
Approximately 10,000 cells per assay well are seeded in normal culture medium in a 384 well plate (Corning). Twenty-four hours after seeding, the cells are loaded with a calcium sensitive fluorescent dye by replacing the culture medium with assay buffer (1× Hanks buffered saline, 25 mM HEPES, 0.1% w/v fatty acid free BSA (bovine serum albumin), pH 7.4) containing 1 mM probenecid and 1× Calcium 5 Reagent (Molecular Devices). Cells are incubated at 37° C. for 1 hour to allow for dye uptake.
To test for antagonist activity, test compounds at a final concentration range between 0.32 nM-10 μM (diluted in assay buffer) are added to duplicate assay wells and allowed to incubate for 10 minutes prior to stimulation with PK1. After incubation with test compounds the assay plate is placed in a FLIPR Tetra (Molecular Devices) and PK1 (diluted in assay buffer) is added at the determined EC80 concentration (final). Ligand-dependent changes in intracellular calcium levels are determined by measuring changes in fluorescence of the dye at […] following excitation at 485 nm. […] A minimum of two IC50 values determined from independent assays are generated for each compound.

Chain of human PKR1 receptors (Q8TCW9 whole entry): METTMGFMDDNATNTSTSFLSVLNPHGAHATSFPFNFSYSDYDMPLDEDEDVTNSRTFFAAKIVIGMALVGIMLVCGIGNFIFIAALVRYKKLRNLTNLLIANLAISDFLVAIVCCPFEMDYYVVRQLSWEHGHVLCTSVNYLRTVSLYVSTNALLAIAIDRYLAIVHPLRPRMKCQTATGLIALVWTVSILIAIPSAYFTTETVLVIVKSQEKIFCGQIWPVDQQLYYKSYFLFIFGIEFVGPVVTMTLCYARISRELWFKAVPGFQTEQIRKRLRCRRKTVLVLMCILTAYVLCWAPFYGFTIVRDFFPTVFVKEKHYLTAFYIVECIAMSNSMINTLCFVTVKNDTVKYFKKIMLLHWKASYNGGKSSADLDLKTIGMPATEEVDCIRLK

IC50 | Compound
290 nM | CNc1cc(C(=O)N2CCCC(F)(c3ncc(Cl)cc3C)C2)ccn1 (stereo not shown) [Example 35, 4-[3-(5-Chloro-3-methylpyridin-2-yl)-3-fluoropiperidine-1-carbonyl]-N-methylpyridin-2-amine]
1040 nM | Cc1cc(Cl)cnc1C1CCCN(C(=O)c2cnnc(N(C)C)c2)C1 (stereo not shown) [Example 28, 5-[3-(5-Chloro-3-methylpyridin-2-yl)piperidine-1-carbonyl]-N,N-dimethylpyridazin-3-amine]
1490 nM | CNc1cc(C(=O)N2CCCC(OC)(c3ncc(Cl)cc3C)C2)cnn1 (stereo not shown) [Example 36, 5-[3-(5-Chloro-3-methylpyridin-2-yl)-3-methoxypiperidine-1-carbonyl]-N-methylpyridazin-3-amine]
> 9000 nM | COC1(c2ncc(Cl)cc2C)CCCN(C(=O)c2cn(C)nc2N)C1 (stereo not shown) [Example 42, 4-[3-(5-Chloro-3-methylpyridin-2-yl)-3-methoxypiperidine-1-carbonyl]-1-methyl-1H-pyrazol-3-amine]
470 nM | CNc1cc(C(=O)N2CCCC(OC)(c3ncc(Cl)cc3C)C2)ccn1 (stereo not shown) [Example 34, 4-[3-(5-Chloro-3-methylpyridin-2-yl)-3-methoxypiperidine-1-carbonyl]-N-methylpyridin-2-amine]
2080 nM | CNc1cc(C(=O)N2CCCC(OC)(c3ncc(Cl)cc3C(F)(F)F)C2)cnn1 (stereo not shown) [Example 30, 5-({3-[5-Chloro-3-(trifluoromethyl)pyridin-2-yl]-3-methoxypiperidin-1-yl}carbonyl)-N-methylpyridazin-3-amine]

Further lines, the compound ahead of its results:

Compound | IC50
CCn1c(C2CCCN(C(=O)c3cnnc(N(C)C)c3)C2)cc2cc(C)ccc21 (stereo not shown) [Example 21, 5-[3-(1-Ethyl-5-methyl-1H-indol-2-yl)piperidine-1-carbonyl]-N,N-dimethylpyridazin-3-amine] | 5340 nM
CCn1c(C2CCCN(C(=O)c3cnnc(N(C)C)c3)C2)cc2cc(Cl)ccc21 (stereo not shown) [Example 22, 5-[3-(5-Chloro-1-ethyl-1H-indol-2-yl)piperidine-1-carbonyl]-N,N-dimethylpyridazin-3-amine] | 1730 nM
CC(C)n1c(C2CCCN(C(=O)c3cn(C)nc3N)C2)cc2ccccc21 (stereo not shown) [Example 16, 1-Methyl-4-{3-[1-(propan-2-yl)-1H-indol-2-yl]piperidine-carbonyl}-1H-pyrazol-3-amine] | 1440 nM
CNc1cc(C(=O)N2CCCC(c3[nH]c4ccccc4c3C)C2)cnn1 (stereo not shown) [Example 23, N-Methyl-5-[3-(3-methyl-1H-indol-2-yl)piperidine-1-carbonyl]pyridazin-3-amine] | 7410 nM
Cc1c(C2CCCN(C(=O)c3cnnc(N(C)C)c3)C2)[nH]c2ccccc12 (stereo not shown) [Example 24, N,N-Dimethyl-5-[3-(3-methyl-1H-indol-2-yl)piperidine-1-carbonyl]pyridazin-3-amine] | 7410 nM
CNc1cc(C(=O)N2CCCC(c3cc4ccccc4n3C)C2)cnn1 (stereo not shown) [Example 9, N-Methyl-5-[3-(1-methyl-1H-indol-2-yl)piperidine-1-carbonyl]pyridazin-3-amine] | 1080 nM
CC(C)n1c(C2CCCN(C(=O)c3cnnc(N(C)C)c3)C2)cc2ccccc21 (stereo not shown) [Example 13, N,N-Dimethyl-5-{3-[1-(propan-2-yl)-1H-indol-2-yl]piperidine-1-carbonyl}pyridazin-3-amine] | 760 nM
CCn1c(C2CCCN(C(=O)c3cnnc(N(C)C)c3)C2)cc2ccccc21 (stereo not shown) [Example 11, 5-[3-(1-Ethyl-1H-indol-2-yl)piperidine-1-carbonyl]-N,N-dimethylpyridazin-3-amine] | 940 nM
CCn1c(C2CCCN(C(=O)c3cn(C)nc3N)C2)c(C)c2ccccc21 (stereo not shown) [Example 25, 4-[3-(1-Ethyl-3-methyl-1H-indol-2-yl)piperidine-1-carbonyl]-1-methyl-1H-pyrazol-3-amine] | 7860 nM
CCn1c(C2CCCN(C(=O)c3cn(C)nc3N)C2)cc2cc(Cl)ccc21 (stereo not shown) [Example 27, 4-[3-(5-Chloro-1-ethyl-1H-indol-2-yl)piperidine-1-carbonyl]-1-methyl-1H-pyrazol-3-amine] | 910 nM
